Results reported in PMC9016807, “Metabolic, Pharmacokinetic, and Activity Profile of the Liver Stage Antimalarial (RC-12)” (ACS Omega, 2022).

Experiment: Metabolism in human liver microsomes
Type: in vitro ADME
Conditions: 1 μM substrate, NADPH
Protocol: Following the protocols described by Charman et al.,[28]1 was incubated at 37 °C with human, rat, and rhesus monkey liver microsomes. For the determination of intrinsic clearance, the substrate concentration was 1 μM and the protein concentration was 0.4 mg/mL; for qualitative metabolite identification studies, the substrate and protein concentrations were 10 μM and 1 mg/mL, respectively. The reaction was initiated by the addition of an NADPH-regenerating buffer system, and the samples were incubated for up to 60 (for Clint determination) or 180 min (for additional metabolite identification). Samples without the test compound and without NADPH were also incubated and used as controls. The reaction was quenched by protein precipitation with the addition of an equal volume of ice-cold acetonitrile solution (containing diazepam as an internal standard), followed by vortexing and centrifugation for 3 min at 10000 rpm. The supernatant was removed and analyzed by LC/MS. LC/MS analysis was conducted using a Waters Micromass Xevo G2 QTOF MS coupled to a Waters Acquity UPLC. For metabolite identification, a Supelco Ascentis Express Amide column (50 × 2.1 mm, 2.7 μm) was used with an acetonitrile–water gradient (containing 0.05% formic acid), a flow rate of 0.4 mL/min, a gradient cycle time of 6 min, and an injection volume of 5 μL. MS analysis was conducted using positive mode electrospray ionization under MSE acquisition mode, which allows simultaneous acquisition of MS spectra at low and high collision energies. The identity of putative metabolites was confirmed by the accurate mass and a comparison of the retention times and MS/MS fragmentation patterns with authentic metabolites where available. For metabolite quantitation, the method described below for the analysis of plasma samples was used.

CCN(CC)CCN(CCN(CC)CC)c1cc(OC)c(OC)cc1Br [Compound 1, 4-(2-bromo-4,5-dimethoxyphenyl)-1,1,7,7-tetraethyldiethylenetriamine]
average substrate depletion over a 60 min incubation (0.4 mg/mL protein, relative to initial substrate concentration): <10%
microsomal CLint at 1 μM (human, liver microsomes, 0.4 mg/mL microsomal protein, 37 °C, 60 min, average of three replicates, read-out: CLint): < 3 µL/min/mg
